Results published in patent publication US11945790B2 (ImmunoMolecular Therapeutics, Inc., priority 2020, dated 2024).

Molecular target: HLA-DQ2 (Homo sapiens, UniProt P01909+P01920)
Test: Inhibition of IL-2 secretion by TCR transductants stimulated by α-gliadin peptides presented by HLA-DQ2 expressing K562 cells (ELISA)
Format: cell-based
Settings: tested as trans racemate unless otherwise noted, lines naming several Examples = stereoisomer mixture of those Examples; for % Inh at 200 uM: inhibition of IL-2 secretion at 200 uM
Description: Three commercially available analogues of the DQ2 binding molecules of the invention were tested for their ability to inhibit stimulation of T cell receptor (TCR) transductants in the presence of HLA-DQ2 expressing cells presenting known α-gliadin epitopes.
Using a previously published in vitro assay (Ostrov D, et al. Methyldopa blocks MHC class II binding to disease specific antigens in autoimmune diabetes. J Clin Invest. 2018:128 (5)) the ability of these DQ2 binding analogues to inhibit interleukin-2 (IL-2) secretion by TCR transductants stimulated by α-gliadin peptides presented by HLA-DQ2 was determined. Individual TCR transductants (recognizing a I-gliadin or a II-gliadin) were cultured with a gliadin peptide plus the small molecule analogues in the presence of HLA-DQ2 expressing K562 cells serving as antigen presenting cells. TCR transductants cultured with no gliadin peptide served as the negative control, and incubation with an anti-CD3 antibody (eBioscience; clone 2C11) served as a positive control for the TCR transductant. Secreted IL-2 in the culture supernatant was measured using a highly sensitive enzyme-linked immunosorbent assay (ELISA). […] Assays for effects on cell viability and for specificity, assayed in the absence of gliadin peptide or in the presence of a stimulating anti-CD3 antibody, were performed. Unless otherwise noted, the stereochemistry shown below represents the relative configuration. Further, unless otherwise noted, compounds were tested as the trans racemate.

Chain of HLA-DQ2 (P01920 33-261 limits assumed, other chains not shown): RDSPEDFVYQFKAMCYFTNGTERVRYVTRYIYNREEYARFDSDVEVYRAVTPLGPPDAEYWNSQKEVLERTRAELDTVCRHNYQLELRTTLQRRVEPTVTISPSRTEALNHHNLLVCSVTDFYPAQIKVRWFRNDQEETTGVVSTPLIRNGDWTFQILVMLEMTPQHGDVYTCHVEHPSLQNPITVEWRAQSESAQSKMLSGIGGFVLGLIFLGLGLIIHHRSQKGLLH

% Inh at 200 uM	EC50 (inhibition of IL-2 secretion, dose-response)	Structure (SMILES)
B (B=50-74%)		CN(CC(=O)N1CCN(C(=O)[C@H]2CC2c2ccccc2)CC1)C1CCCC1 (some centres unmarked) [Example 82]
A (A=≥75%)		Cc1ccc(SCC(=O)N2CCN(C(=O)[C@@H]3C[C@H]3c3ccccc3)CC2)c(F)c1 (relative stereo) [Example 71, 2-((2-Fluoro-4-methylphenyl)thio)-1-(4-(trans-2-phenylcyclopropane-1-carbonyl)piperazin-1-yl) ethan-1-one]
B (B=50-74%)		Cc1cc(F)ccc1SCC(=O)N1CCN(C(=O)[C@@H]2C[C@H]2c2ccccc2)CC1 (relative stereo) [Example 61, 2-((4-Fluoro-2-methylphenyl)thio)-1-(4-(trans-2-phenylcyclopropanecarbonyl)-piperazin-1-yl)ethanone]
A (A=≥75%)		O=C(CNC1CCCC1)N1CCN(C(=O)[C@H]2CC2c2ccccc2)CC1 (some centres unmarked) [Example 81]
A (A=≥75%)		O=C(CN(C(=O)OCc1ccccc1)C1CCCC1)N1CCN(C(=O)[C@@H]2CC2c2ccccc2)CC1 (some centres unmarked) [Example 83]
C (C=25-49%)		O=C(CSC1CCCC1)N1CCN(C(=O)[C@@H]2C[C@H]2c2ccc(F)cc2)CC1 [Example 68]
A (A=≥75%)		O=C(CSC1CCCC1)N1CCN(C(=O)[C@H]2C[C@@H]2c2ccc(F)c(F)c2)CC1 [Example 35]
B (B=50-74%)		O=C(CSC1CCCC1)N1CCN(C(=O)[C@H]2C[C@@H]2c2cccc(Cl)c2)CC1 [Example 32]
B (B=50-74%)		COc1ccc(SCC(=O)N2CCN(C(=O)[C@@H]3C[C@H]3c3ccccc3)CC2)cc1 [Example 75]
A (A=≥75%)		O=C(CSC1CCCC1)N1CCN(C(=O)C2CC2c2cccs2)CC1 (centres unmarked) [Example 14]
B (B=50-74%)		COc1ccccc1[C@H]1C[C@@H]1C(=O)N1CCN(C(=O)CSC2CCCC2)CC1 [Example 34]
C (C=25-49%)		O=C(COC1CC1)N1CCN(C(=O)[C@@H]2C[C@H]2c2ccccc2)CC1 (racemic) [Example 38, 2-Cyclopropoxy-1-(4-(trans-2-phenylcyclopropanecarbonyl)piperazin-1-yl) ethanone]
C (C=25-49%)		CC(C)OCC(=O)N1CCN(C(=O)[C@@H]2C[C@H]2c2ccccc2)CC1 (relative stereo) [Example 44, 2-Isopropoxy-1-(4-(trans-2-phenylcyclopropanecarbonyl)piperazin-1-yl) ethanone]
C (C=25-49%)		CC(C)SCC(=O)N1CCN(C(=O)[C@@H]2C[C@H]2c2ccccc2)CC1 [Example 45]
C (C=25-49%)		COc1cccc(SCC(=O)N2CCN(C(=O)[C@@H]3C[C@H]3c3ccccc3)CC2)c1 [Example 62]
B (B=50-74%)		O=C(CSC1CCCC1)N1CCN(C(=O)[C@@H]2C[C@H]2c2ccccc2F)CC1 [Example 33]
A (A=≥75%)		O=C(CSC1CCCC1)N1CCN(C(=O)[C@H]2C[C@@H]2c2ccccc2Cl)CC1 [Example 36]
B (B=50-74%)		O=C(CSC1CCCC1)N1CCN(C(=O)[C@H]2C[C@@H]2c2ccccc2O)CC1 [Example 37]

Continued, molecule first:

Structure (SMILES)	% Inh at 200 uM	EC50 (inhibition of IL-2 secretion, dose-response)
O=C(CSc1ccc(Cl)cc1F)N1CCN(C(=O)[C@@H]2C[C@H]2c2ccccc2)CC1 (relative stereo) [Example 103, 2-((4-Chloro-2-fluorophenyl)thio)-1-(4-(trans-2-phenylcyclo-propane-1-carbonyl)piperazin-1-yl) ethan-1-one]	A (A=≥75%)	
O=CNc1ccc(SCC(=O)N2CCN(C(=O)[C@@H]3C[C@H]3c3ccccc3)CC2)cc1 [Example 74]	B (B=50-74%)	
Cc1nnsc1C(=O)N1CCN(C(=O)C2CC2c2ccc3c(c2)OCO3)CC1 (centres unmarked) [Example 9]	C (C=25-49%)	
O=C(COc1ccccc1F)N1CCN(C(=O)[C@@H]2C[C@H]2c2ccccc2)CC1 [Example 98]	B (B=50-74%)	
Cc1ccc(SCC(=O)N2CCN(C(=O)[C@@H]3C[C@H]3c3ccccc3)CC2)cc1 [Example 53]	B (B=50-74%)	
O=C(c1ccccc1F)N1CCN(C(=O)C2CC2c2ccc3c(c2)OCO3)CC1 (centres unmarked) [Example 22]	B (B=50-74%)	
COC(=O)c1ccc(OCC(=O)N2CCN(C(=O)[C@@H]3C[C@H]3c3ccccc3)CC2)cc1 (relative stereo) [Example 106, Methyl 4-(2-oxo-2-(4-(trans-2-phenylcyclopropanecarbonyl)piperazin-1-yl)ethoxy) benzoate]	A (A=≥75%)	100 to 200 µM
Cc1ccc(SCC(=O)N2CCN(C(=O)[C@@H]3C[C@H]3c3ccccc3)CC2)c(Cl)c1 (relative stereo) [Example 84, 2-((2-Chloro-4-methylphenyl)thio)-1-(4-(trans-2-phenylcyclo-propanecarbonyl)piperazin-1-yl) ethanone]	A (A=≥75%)	
O=CNc1ccccc1SCC(=O)N1CCN(C(=O)[C@@H]2C[C@H]2c2ccccc2)CC1 [Example 86]	C (C=25-49%)	
O=C(COc1ccc(F)cc1)N1CCN(C(=O)[C@@H]2C[C@H]2c2ccccc2)CC1 [Example 108]	A (A=≥75%)	
Cc1ccc(SCC(=O)N2CCN(C(=O)[C@@H]3C[C@H]3c3ccccc3)CC2)c(C)c1 [Example 70]	A (A=≥75%)	
O=C(CSc1ccccc1Cl)N1CCN(C(=O)[C@@H]2C[C@H]2c2ccccc2)CC1 (relative stereo) [Example 60, 2-((2-Chlorophenyl)thio)-1-(4-(trans-2-phenylcyclopropane-1-carbonyl)piperazin-1-yl) ethan-1-one]	B (B=50-74%)	
O=C(c1cc(Cl)ccc1Cl)N1CCN(C(=O)C2CC2c2ccc3c(c2)OCO3)CC1 (centres unmarked) [Example 18]	A (A=≥75%)	
O=C(Cc1c(F)cccc1Cl)N1CCN(C(=O)C2CC2c2ccc3c(c2)OCO3)CC1 (centres unmarked) [Example 23]	C (C=25-49%)	
NC(=O)c1cccc(OCC(=O)N2CCN(C(=O)[C@@H]3C[C@H]3c3ccccc3)CC2)c1 [Example 91]	B (B=50-74%)	
O=C(O)CCNCC(=O)N1CCN(C(=O)[C@@H]2C[C@H]2c2ccccc2)CC1 [Example 111]	D (D=0-24%)	
O=C(CSc1ccc(Cl)cc1)N1CCN(C(=O)[C@@H]2C[C@H]2c2ccccc2)CC1 (relative stereo) [Example 57, 2-((4-Chlorophenyl)thio)-1-(4-(trans-2-phenylcyclopropane-carbonyl)piperazin-1-yl) ethanone]	B (B=50-74%)	
O=C(COc1cccc(O)c1)N1CCN(C(=O)[C@@H]2C[C@H]2c2ccccc2)CC1 [Example 96]	B (B=50-74%)	
Cc1ccc(C)c(SCC(=O)N2CCN(C(=O)[C@@H]3C[C@H]3c3ccccc3)CC2)c1 (relative stereo) [Example 55, 2-((2,5-Dimethylphenyl)thio)-1-(4-(trans-2-phenylcyclo-propanecarbonyl)piperazin-1-yl)-ethanone]	B (B=50-74%)	
NC(=O)c1ccccc1SCC(=O)N1CCN(C(=O)[C@@H]2C[C@H]2c2ccccc2)CC1 [Example 73]	C (C=25-49%)	
Cc1noc(C)c1CCC(=O)N1CCN(C(=O)C2CC2c2ccc3c(c2)OCO3)CC1 (centres unmarked) [Example 15]	C (C=25-49%)	
O=C(COc1ccc(F)cc1)N1CCN(C(=O)C2CC2c2ccc3c(c2)OCO3)CC1 (centres unmarked) [Example 6]	A (A=≥75%)	
